Assay results as given in ChEMBL document CHEMBL1212844, “Synthesis and biological evaluation of naphthoquinone analogs as a novel class of proteasome inhibitors” (Bioorg Med Chem, 2010).

What was measured:
[1] = Inhibition of trypsin like proteolytic activity of rabbit 26S proteasome; parameters: species or system Oryctolagus cuniculus
[2] = Inhibition of PGPH activity of rabbit 26S proteasome; parameters: species or system Oryctolagus cuniculus
[3] = Inhibition of chymotrypsin like proteolytic activity of rabbit 26S proteasome; parameters: species or system Oryctolagus cuniculus
[4] = Inhibition of 26S proteasome-mediated chymotrypsin like proteolytic activity in human MCF7 cells; type: cell-based
[5] = Inhibition of calpain
[6] = Dissociation constant, pKa of the compound; type: physicochemical

Compound	IC50 [1]	IC50 [2]	IC50 [3]	IC50 [4]	IC50 [5]	pKa [6]
COc1cc(NC2=C(Cl)C(=O)c3ccccc3C2=O)ccc1S(=O)(=O)Nc1ccccc1C	24.3 µM	30 µM	13.7 µM	–	–	–
COc1ccc(NS(=O)(=O)c2ccc(NC3=C(Cl)C(=O)c4ccccc4C3=O)cc2OC)cc1	23.3 µM	35 µM	15.3 µM	–	–	–
O=C1C(Cl)=C(Nc2ccc(S(=O)(=O)Nc3ccnn3-c3ccccc3)cc2)C(=O)c2ccccc21	20.7 µM	25.6 µM	16.3 µM	–	–	< 7.91
COc1cccc(NS(=O)(=O)c2ccc(NC3=C(Cl)C(=O)c4ccccc4C3=O)cc2)c1	24.6 µM	43.5 µM	17 µM	–	–	–
Cc1cc(C)nc(NS(=O)(=O)c2ccc(NC3=C(Cl)C(=O)c4ccccc4C3=O)cc2)n1	20.9 µM	50.2 µM	19 µM	–	–	< 7.91
COc1ccccc1NS(=O)(=O)c1ccc(NC2=C(Cl)C(=O)c3ccccc3C2=O)cc1	24.7 µM	49.2 µM	20.8 µM	–	–	–
Cc1cccc(NS(=O)(=O)c2ccc(NC3=C(Cl)C(=O)c4ccccc4C3=O)cc2)c1	55 µM	> 100 µM	20.8 µM	–	–	–

Now those with a lower IC50 [1], led by results:

IC50 [1]	IC50 [2]	IC50 [3]	IC50 [4]	IC50 [5]	pKa [6]	Compound
4.5 µM	4.5 µM	1 µM	6 µM	> 30 µM	–	O=C1C(Cl)=C(Nc2ccc(S(=O)(=O)Nc3ccccn3)cc2)C(=O)c2ccccc21
8.15 µM	14.3 µM	3.3 µM	–	–	< 7.91	O=C1C(Cl)=C(Nc2ccc(S(=O)(=O)Nc3nccs3)cc2)C(=O)c2ccccc21
9.25 µM	21.2 µM	3.9 µM	–	–	< 7.91	Cc1noc(NS(=O)(=O)c2ccc(NC3=C(Cl)C(=O)c4ccccc4C3=O)cc2)c1C
10.7 µM	13.4 µM	6.4 µM	–	–	< 7.91	Cc1nnc(NS(=O)(=O)c2ccc(NC3=C(Cl)C(=O)c4ccccc4C3=O)cc2)s1
13.2 µM	16.7 µM	11.2 µM	–	–	< 7.91	Cc1cc(NS(=O)(=O)c2ccc(NC3=C(Cl)C(=O)c4ccccc4C3=O)cc2)no1
7 µM	0.48 µM	–	–	–	–	CC(C)C[C@H](NC(=O)[C@H](Cc1ccccc1)NC(=O)c1cnccn1)B(O)O [BORTEZOMIB]
